{"source": "BigSolDB 2.1"}
{"smiles": "CCOC(=O)CCC(=O)O[C@H]1[C@H](O[C@@H]2[C@@H](C)[C@H](O[C@H]3C[C@@](C)(OC)[C@@H](O)[C@H](C)O3)[C@@H](C)C(=O)O[C@H](CC)[C@@](C)(O)[C@H](O)[C@@H](C)C(=O)[C@H](C)C[C@@]2(C)O)O[C@H](C)C[C@@H]1N(C)C", "values": [{"measurement": "solubility (mole fraction)", "setting": "in THF, 288.15 K", "value": 0.036}, {"measurement": "solubility (mole fraction)", "setting": "in THF, 293.15 K", "value": 0.0416}, {"measurement": "solubility (mole fraction)", "setting": "in THF, 298.15 K", "value": 0.0491}, {"measurement": "solubility (mole fraction)", "setting": "in THF, 303.15 K", "value": 0.058}, {"measurement": "solubility (mole fraction)", "setting": "in THF, 308.15 K", "value": 0.0684}, {"measurement": "solubility (mole fraction)", "setting": "in THF, 313.15 K", "value": 0.081}, {"measurement": "solubility (mole fraction)", "setting": "in THF, 318.15 K", "value": 0.0977}, {"measurement": "solubility (mole fraction)", "setting": "in THF, 323.15 K", "value": 0.114}, {"measurement": "solubility (mole fraction)", "setting": "in acetone, 288.15 K", "value": 0.0138}, {"measurement": "solubility (mole fraction)", "setting": "in acetone, 293.15 K", "value": 0.0175}, {"measurement": "solubility (mole fraction)", "setting": "in acetone, 298.15 K", "value": 0.0219}, {"measurement": "solubility (mole fraction)", "setting": "in acetone, 303.15 K", "value": 0.0268}, {"measurement": "solubility (mole fraction)", "setting": "in acetone, 308.15 K", "value": 0.0347}, {"measurement": "solubility (mole fraction)", "setting": "in acetone, 313.15 K", "value": 0.0425}, {"measurement": "solubility (mole fraction)", "setting": "in acetone, 318.15 K", "value": 0.0527}, {"measurement": "solubility (mole fraction)", "setting": "in acetone, 323.15 K", "value": 0.0614}, {"measurement": "solubility (mole fraction)", "setting": "in acetonitrile, 288.15 K", "value": 0.0019}, {"measurement": "solubility (mole fraction)", "setting": "in acetonitrile, 293.15 K", "value": 0.00252}, {"measurement": "solubility (mole fraction)", "setting": "in acetonitrile, 298.15 K", "value": 0.00332}, {"measurement": "solubility (mole fraction)", "setting": "in acetonitrile, 303.15 K", "value": 0.00397}, {"measurement": "solubility (mole fraction)", "setting": "in acetonitrile, 308.15 K", "value": 0.00504}, {"measurement": "solubility (mole fraction)", "setting": "in acetonitrile, 313.15 K", "value": 0.00703}, {"measurement": "solubility (mole fraction)", "setting": "in acetonitrile, 318.15 K", "value": 0.00906}, {"measurement": "solubility (mole fraction)", "setting": "in acetonitrile, 323.15 K", "value": 0.0114}, {"measurement": "solubility (mole fraction)", "setting": "in ethanol, 288.15 K", "value": 0.00762}, {"measurement": "solubility (mole fraction)", "setting": "in ethanol, 293.15 K", "value": 0.00966}, {"measurement": "solubility (mole fraction)", "setting": "in ethanol, 298.15 K", "value": 0.0128}, {"measurement": "solubility (mole fraction)", "setting": "in ethanol, 303.15 K", "value": 0.017}, {"measurement": "solubility (mole fraction)", "setting": "in ethanol, 308.15 K", "value": 0.0242}, {"measurement": "solubility (mole fraction)", "setting": "in ethanol, 313.15 K", "value": 0.0323}, {"measurement": "solubility (mole fraction)", "setting": "in ethanol, 318.15 K", "value": 0.0414}, {"measurement": "solubility (mole fraction)", "setting": "in ethanol, 323.15 K", "value": 0.0518}, {"measurement": "solubility (mole fraction)", "setting": "in isopropanol, 288.15 K", "value": 0.00814}, {"measurement": "solubility (mole fraction)", "setting": "in isopropanol, 293.15 K", "value": 0.0106}, {"measurement": "solubility (mole fraction)", "setting": "in isopropanol, 298.15 K", "value": 0.0141}, {"measurement": "solubility (mole fraction)", "setting": "in isopropanol, 303.15 K", "value": 0.0187}, {"measurement": "solubility (mole fraction)", "setting": "in isopropanol, 308.15 K", "value": 0.0249}, {"measurement": "solubility (mole fraction)", "setting": "in isopropanol, 313.15 K", "value": 0.0342}, {"measurement": "solubility (mole fraction)", "setting": "in isopropanol, 318.15 K", "value": 0.0459}, {"measurement": "solubility (mole fraction)", "setting": "in isopropanol, 323.15 K", "value": 0.0556}, {"measurement": "solubility (mole fraction)", "setting": "in n-hexane, 288.15 K", "value": "9.26e-05"}, {"measurement": "solubility (mole fraction)", "setting": "in n-hexane, 293.15 K", "value": 0.000129}, {"measurement": "solubility (mole fraction)", "setting": "in n-hexane, 298.15 K", "value": 0.000158}, {"measurement": "solubility (mole fraction)", "setting": "in n-hexane, 303.15 K", "value": 0.000213}, {"measurement": "solubility (mole fraction)", "setting": "in n-hexane, 308.15 K", "value": 0.000286}, {"measurement": "solubility (mole fraction)", "setting": "in n-hexane, 313.15 K", "value": 0.000371}, {"measurement": "solubility (mole fraction)", "setting": "in n-hexane, 318.15 K", "value": 0.000562}, {"measurement": "solubility (mole fraction)", "setting": "in n-hexane, 323.15 K", "value": 0.000698}]}
